{
  "source": "ChEMBL document CHEMBL1140041",
  "about": "“Flavylium salts as in vitro precursors of potent ligands to brain GABA-A receptors” (Bioorg Med Chem Lett, 2008)",
  "format_in_all_cases": "cell membranes",
  "key": {"[1]": {"assay": "Displacement of [3H]flumazenil from GABAA receptor in Wistar rat cortical membrane"}, "Rattus norvegicus": {"species": "Rattus norvegicus", "assay": "Displacement of [3H]flumazenil from GABAA receptor in Wistar rat cortical membrane at 10 uM"}, "[2]": {"assay": "Displacement of [3H]flumazenil from GABAA receptor in Wistar rat cortical membrane preincubated for 24 hrs"}, "[3]": {"assay": "Displacement of [3H]flumazenil from GABAA receptor in Wistar rat cortical membrane preincubated for 15 mins"}},
  "note": "The source made the active and inactive calls. The rule behind the calls is not given here.",
  "data": [
    {"molecule": "Oc1ccc2ccc(-c3ccccc3)[o+]c2c1", "values": [
      {"measurement": "Ki", "setting": "[1]", "value": 260, "unit": "nM"}
    ]},
    {"molecule": "Oc1ccc(-c2ccc3ccc(O)c(O)c3[o+]2)cc1", "values": [
      {"measurement": "Activity", "setting": "Rattus norvegicus", "value": "inactive"}
    ]},
    {"molecule": "COc1ccc(-c2ccc3cc(O)ccc3[o+]2)cc1", "values": [
      {"measurement": "Ki", "setting": "[1]", "value": 320, "unit": "nM"}
    ]},
    {"molecule": "COc1ccc(-c2ccc3ccc(OC)cc3[o+]2)cc1", "values": [
      {"measurement": "Ki", "setting": "[1]", "value": 1200, "unit": "nM"}
    ]},
    {"molecule": "COc1ccc2ccc(-c3ccccc3)[o+]c2c1", "values": [
      {"measurement": "Ki", "setting": "[1]", "value": 1800, "unit": "nM"}
    ]},
    {"molecule": "COc1ccc(-c2ccc3ccccc3[o+]2)cc1OC", "values": [
      {"measurement": "Activity", "setting": "Rattus norvegicus", "value": "inactive"}
    ]},
    {"molecule": "COc1ccc2[o+]c(-c3ccc(OC)c(OC)c3)ccc2c1", "values": [
      {"measurement": "Activity", "setting": "Rattus norvegicus", "value": "inactive"}
    ]},
    {"molecule": "COc1ccc(C(=O)/C=C/c2cc(OC)ccc2O)cc1", "values": [
      {"measurement": "Ki", "setting": "[2]", "value": 28, "unit": "nM"}
    ]},
    {"molecule": "Oc1ccc(-c2ccc3cc(O)ccc3[o+]2)cc1", "values": [
      {"measurement": "Ki", "setting": "[1]", "value": 1500, "unit": "nM"}
    ]},
    {"molecule": "COc1cc(-c2ccc3ccccc3[o+]2)cc(OC)c1OC", "values": [
      {"measurement": "Activity", "setting": "Rattus norvegicus", "value": "inactive"}
    ]},
    {"molecule": "COc1ccc(-c2ccc3cc(Br)ccc3[o+]2)cc1", "values": [
      {"measurement": "Ki", "setting": "[2]", "value": 66, "unit": "nM"},
      {"measurement": "Ki", "setting": "[3]", "value": 66, "unit": "nM"},
      {"measurement": "Ki", "setting": "[1]", "value": 140, "unit": "nM"}
    ]},
    {"molecule": "COc1ccc(-c2ccc3cc(OC)ccc3[o+]2)cc1", "values": [
      {"measurement": "Ki", "setting": "[2]", "value": 18, "unit": "nM"},
      {"measurement": "Ki", "setting": "[3]", "value": 18, "unit": "nM"},
      {"measurement": "Ki", "setting": "[1]", "value": 60, "unit": "nM"}
    ]},
    {"molecule": "COc1ccc2[o+]c(-c3ccccc3)ccc2c1", "values": [
      {"measurement": "Ki", "setting": "[1]", "value": 180, "unit": "nM"}
    ]},
    {"molecule": "Oc1ccc(-c2ccc3ccc(O)cc3[o+]2)cc1", "values": [
      {"measurement": "Ki", "setting": "[1]", "value": 280, "unit": "nM"}
    ]},
    {"molecule": "COc1ccc(-c2ccc3ccccc3[o+]2)cc1", "values": [
      {"measurement": "Ki", "setting": "[1]", "value": 480, "unit": "nM"}
    ]},
    {"molecule": "Oc1ccc(-c2ccc3cccc(O)c3[o+]2)cc1", "values": [
      {"measurement": "Activity", "setting": "Rattus norvegicus", "value": "inactive"}
    ]},
    {"molecule": "COc1ccc2[o+]c(-c3ccc(O)cc3)ccc2c1", "values": [
      {"measurement": "Ki", "setting": "[1]", "value": 160, "unit": "nM"}
    ]},
    {"molecule": "COc1ccc(-c2ccc3cc(OC)c(O)cc3[o+]2)cc1", "values": [
      {"measurement": "Ki", "setting": "[1]", "value": 7800, "unit": "nM"}
    ]}
  ]
}
